The values that follow come from patent US9073935B2, “Substituted benzylspiroindolin-2-one analogs as positive allosteric modulators of the muscarinic acetylcholine receptor M1” (VANDERBILT UNIVERSITY, priority 2011, dated 2015).

A word on the Emax: it is the maximal effect, on the per cent scale that the assay sets. In general, EC50 refers to the concentration at which the effect is half-maximal.

This assay has as its target T1, mAChR M1 (UniProt P11229).
T1 sequence (P11229 1-460): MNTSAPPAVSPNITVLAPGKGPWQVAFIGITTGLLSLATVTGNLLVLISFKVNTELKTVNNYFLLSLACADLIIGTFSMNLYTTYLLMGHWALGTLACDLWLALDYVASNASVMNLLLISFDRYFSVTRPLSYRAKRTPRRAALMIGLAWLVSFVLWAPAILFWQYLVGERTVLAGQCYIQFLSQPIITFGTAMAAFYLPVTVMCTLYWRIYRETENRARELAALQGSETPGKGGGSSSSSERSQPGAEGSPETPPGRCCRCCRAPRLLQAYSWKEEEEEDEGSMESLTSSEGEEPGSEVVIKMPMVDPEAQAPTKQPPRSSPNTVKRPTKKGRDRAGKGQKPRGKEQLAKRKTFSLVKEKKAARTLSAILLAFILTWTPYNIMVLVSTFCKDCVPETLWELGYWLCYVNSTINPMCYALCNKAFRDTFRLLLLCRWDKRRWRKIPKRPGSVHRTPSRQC
The experiment in a line: mAChR M1 cell-based functional assay (calcium mobilization, potentiation of EC20 acetylcholine response). To be noted: for EC50: CHO-K1 cells expressing mAChR M1, increase in EC20 acetylcholine response, >10 μM estimated where no plateau in the curve. On the procedure: Chinese hamster ovary (CHO-K1) cells stably expressing rat (r)M1 were purchased from the American Type Culture Collection and cultured according to their indicated protocol. […] To make stable rM2, hM2, rM3, hM4, and rM4 cell lines for use in calcium mobilization assays, these cells also were stably transfected with a chimeric G-protein (Gqi5) (provided by B. R. Conklin, University of California, San Francisco) using Lipofectamine 2000. rM1, hM1, rM3, hM3, rM5, and hM5 cells were grown in Ham's F-12 medium containing 10% heat-inactivated fetal bovine serum (FBS), 20 mM HEPES, and 50 μg/mL G418 sulfate. rM2-Gqi5, hM2-Gqi5, and hM4-Gqi5 cells were grown in the same medium also containing 500 μg/mL Hygromycin B. Stable rM4-Gqi5 cells were grown in DMEM containing 10% heat-inactivated FBS, 20 mM HEPES, 400 μg/mL G418 sulfate, and 500 μg/mL Hygromycin B.
For high throughput measurement of agonist-evoked increases in intracellular calcium, CHO-K1 cells stably expressing muscarinic receptors were plated in growth medium lacking G418 and hygromycin at 15,000 cells/20 μL/well in Greiner 384-well black-walled, tissue culture (TC)-treated, clear-bottom plates (VWR). Cells were incubated overnight at 37° C. and 5% CO2. […] Compound master plates were formatted in an 11 point CRC format (1:3 dilutions) in 100% DMSO with a starting concentration of 10 mM using the BRAVO liquid handler (Agilent). Test compound CRCs were then transferred to daughter plates ([…]) using the Echo acoustic plate reformatter (Labcyte, Sunnyvale, Calif.) and then diluted into assay buffer (40 μL) to a 2× stock using a Thermo Fisher Combi (Thermo Fisher Scientific, Waltham, Mass.).
Calcium flux was measured using the Functional Drug Screening System (FDSS) 6000 (Hamamatsu Corporation, Tokyo, Japan) as an increase in the fluorescent static ratio. Compounds were applied to cells (20 μL, 2×) using the automated system of the FDSS 6000 at 4 s into the 300 s protocol and the data were collected at 1 Hz. […] Agonist activity was analyzed as a concentration-dependent increase in calcium mobilization upon compound addition. Positive allosteric modulator activity was analyzed as a concentration-dependent increase in the EC20 acetylcholine response. Antagonist activity was analyzed as a concentration-dependent decrease in the EC80 acetylcholine response. Concentration-response curves were generated using a four-parameter logistical equation in XLfit curve fitting software (IDBS, Bridgewater, N.J.) for Excel (Microsoft, Redmond, Wash.) or Prism (GraphPad Software, Inc., San Diego, Calif.).
The calcium mobilization assay was also used to determine “efficacy”. In the context of the assays carried out for the data in Table II, “efficacy” (% ACh at 30 μM) is defined as the maximal response in the calcium flux as determined by the sigmoidal curve fit of the concentration response curve, or in the absence of an acceptable curve fit, the response recorded at 30 μM test compound, stated as a percentage of the response elicited by a concentration of Ach that induces approximately 80% of a maximal (i.e. saturating) ACh response.
Substituted benzylspiroindolin-2-one analogs were synthesized as described above. Activity (EC50 and Emax) was determined in the mAChR M1 cell-based functional assay as described above and the data are shown in Table III. The compound number corresponds to the compound numbers used in Tables I and II.

Read-outs that look alike come from different tables or passages of the source.

Regarding `Cn1cc(-c2ccc(CN3C(=O)C4(OCCO4)c4ccccc43)c(F)c2)cn1` [Compound B22, 1′-(2-fluoro-4-(1-methyl-1H-pyrazol-4-yl)benzyl)spiro[[1,3]dioxolane-2,3′-indolin]-2′-one], the EC50 is 3.2 µM. The maximal effect (Emax) (% ACh maximum at 30 μM) is 86%.

For the compound `Cn1cc(-c2ccc(CN3C(=O)C4(CCN(CCF)C4)c4ccccc43)c(F)c2)cn1` (stereo not shown) [Compound B23], the Emax came out at 63% and the half-maximal effective concentration (EC50) was 3.2 µM.

On to `CCN1CCC2(C1)C(=O)N(Cc1ccc(-c3cnn(C)c3)cc1F)c1ccccc12` (stereo not shown) [Compound B24], for which the 50% effective concentration (EC50) was 3.2 µM. Also, the Emax (% ACh maximum at 30 μM) was 65%.

Consider `Cn1cc(-c2ccc(CN3C(=O)C4(CCN(C5CCOC5)C4)c4ccccc43)c(F)c2)cn1` (stereo not shown) [Compound B25], for which the EC50 was 3.3 µM. Further, the Emax (% ACh maximum at 30 μM) came out at 54%.

Turning to `Cn1cc(-c2ccc(CN3C(=O)C4(CCN(CC(F)F)C4)c4ccccc43)c(F)c2)cn1` (stereo not shown) [Compound B26, 1′-(2,2-difluoroethyl)-1-(2-fluoro-4-(1-methyl-1H-pyrazol-4-yl)benzyl)spiro[indoline-3,3′-pyrrolidin]-2-one], the Emax is recorded as 53% and the EC50 was 3.4 µM.

Take `CN1CCC(N2CCC3(C2)C(=O)N(Cc2ccc(-c4cnn(C)c4)cc2F)c2ccccc23)CC1` (stereo not shown) [Compound B27]: the EC50 was 3.5 µM. Also, the Emax (% ACh maximum at 30 μM) is listed as 63%.

Turning to `Cn1cc(-c2ccc(CN3C(=O)C4(CCN(C5COC5)C4)c4ccccc43)c(F)c2)cn1` (stereo not shown) [Compound B28], the concentration for a half-maximal effect (EC50) was 3.7 µM. Also, the Emax (% ACh maximum at 30 μM) worked out at 57%.

`Cn1cc(-c2ccc(CN3C(=O)C4(CCN(C5CCCSC5)CC4)c4ccccc43)c(F)c2)cn1` (stereo not shown) [Compound B29]: the concentration for a half-maximal effect (EC50) was 3.7 µM. Also, where the note is “% ACh maximum at 30 μM”, the Emax is listed as 42%.

Regarding `Cc1nn(C)cc1-c1ccc(CN2C(=O)C3(CCN(C4CCCC4)C3)c3ccccc32)c(F)c1` (stereo not shown) [Compound B30], the 50% effective concentration (EC50) was 3.7 µM. For the setting “% ACh maximum at 30 μM”, the Emax is 51%.

As to `CCCn1cc(-c2ccc(CN3C(=O)C4(CCN(C5CCCC5)C4)c4ccccc43)c(F)c2)cn1` (stereo not shown) [Compound B32], the EC50 is 3.8 µM. For the same compound, the Emax (% ACh maximum at 30 μM) is given as 41%.

Consider `Cn1cc(-c2ccc(CN3C(=O)C4(CCN(C5CCNC5)CC4)c4ccccc43)c(F)c2)cn1` (stereo not shown) [Compound B33], for which the EC50 is 3.9 µM. In addition, the maximum response (Emax) (% ACh maximum at 30 μM) is given as 52%.

Regarding `CN1CCC2(CC1)C(=O)N(Cc1ccc(-c3cnn(C)c3)cc1F)c1ccccc12` [Compound B36], the 50% effective concentration (EC50) is 4 µM. Also, the maximum response (Emax) (% ACh maximum at 30 μM) stood at 48%.

As to `CC(C)N1CCC2(C1)C(=O)N(Cc1ccc(-c3cnn(C)c3)cc1F)c1ccccc12` (stereo not shown) [Compound B37], the 50% effective concentration (EC50) was 4.4 µM. In addition, the maximal response (Emax) (% ACh maximum at 30 μM) came to 32%.

Consider `Cn1cc(-c2ccc(CN3C(=O)C4(CCN(C5CCCOC5)CC4)c4ccccc43)c(F)c2)cn1` (stereo not shown) [Compound B38], for which the 50% effective concentration (EC50) was 4.7 µM. In addition, the Emax (% ACh maximum at 30 μM) is 50%.

For `CN1CCC(N2CCC3(CC2)C(=O)N(Cc2ccc(-c4cnn(C)c4)cc2F)c2ccccc23)C1` (stereo not shown) [Compound B39], the EC50 was 4.7 µM. In addition, under “% ACh maximum at 30 μM”, the maximal response (Emax) is 55%.

As to `Cn1cc(-c2ccc(CN3C(=O)C4(CCN(C5CCSCC5)CC4)c4ccccc43)c(F)c2)cn1` [Compound B40], the concentration for a half-maximal effect (EC50) was 4.7 µM. For the same compound, where the note is “% ACh maximum at 30 μM”, the Emax was 38%.

For `Cn1cc(-c2ccc(CN3C(=O)C4(CCN(C(=O)C5CC5)C4)c4ccccc43)c(F)c2)cn1` (stereo not shown) [Compound B41], the concentration giving a half-maximal response (EC50) was 4.9 µM. For the same compound, the Emax (% ACh maximum at 30 μM) worked out at 56%.

In the case of `Cn1cc(-c2ccc(CN3C(=O)C4(CCN(C5CCSC5)CC4)c4ccccc43)c(F)c2)cn1` (stereo not shown) [Compound B42], the EC50 was 4.9 µM. In addition, the Emax (% ACh maximum at 30 μM) amounted to 51%.

Regarding `Cn1cc(-c2ccc(CN3C(=O)C4(CCN(C5CCCNC5)CC4)c4ccccc43)c(F)c2)cn1` (stereo not shown) [Compound B43], the EC50 is 5 µM. The Emax (% ACh maximum at 30 μM) is recorded as 48%.

In the case of `CC(C)N1CCC(N2CCC3(C2)C(=O)N(Cc2ccc(-c4cnn(C)c4)cc2F)c2ccccc23)CC1` (stereo not shown) [Compound B44], the EC50 was 5 µM. The maximal response (Emax) (% ACh maximum at 30 μM) turned out to be 49%.

Consider `Cn1cc(-c2ccc(CN3C(=O)C4(CCN(C5CCCC5)CC4)c4ccccc43)c(F)c2)cn1` [Compound B46], for which the EC50 is 5.5 µM. Further, for the setting “% ACh maximum at 30 μM”, the maximum response (Emax) is 34%.

Take `CN1CCC(N2CCC3(CC2)C(=O)N(Cc2ccc(-c4cnn(C)c4)cc2F)c2ccccc23)CC1` [Compound B48]: the concentration giving a half-maximal response (EC50) is 5.9 µM. In addition, the Emax (% ACh maximum at 30 μM) came out at 51%.

As to `CC(C)CN1CCC2(C1)C(=O)N(Cc1ccc(-c3cnn(C)c3)cc1F)c1ccccc12` (stereo not shown) [Compound B49], the EC50 was 6 µM. For the same compound, under “% ACh maximum at 30 μM”, the maximal effect (Emax) is on record as 69%.

In the case of `Cn1cc(-c2ccc(CN3C(=O)C4(CCN(C5CNC5)C4)c4ccccc43)c(F)c2)cn1` (stereo not shown) [Compound B50], the EC50 was 6 µM. The maximal effect (Emax) (% ACh maximum at 30 μM) amounted to 58%.

`Cn1cc(-c2ccc(CN3C(=O)C4(CCN(C(=O)C5CCC5)C4)c4ccccc43)c(F)c2)cn1` (stereo not shown) [Compound B51]: the concentration for a half-maximal effect (EC50) was 6.2 µM. In addition, the Emax (% ACh maximum at 30 μM) was 50%.

In the case of `CC1CCC(N2CCC3(C2)C(=O)N(Cc2ccc(-c4cnn(C)c4)cc2F)c2ccccc23)CC1` (stereo not shown) [Compound B52], the concentration for a half-maximal effect (EC50) was 6.7 µM. In addition, the Emax (% ACh maximum at 30 μM) is reported as 46%.

Turning to `CN1CCCC(N2CCC3(CC2)C(=O)N(Cc2ccc(-c4cnn(C)c4)cc2F)c2ccccc23)C1` (stereo not shown) [Compound B53], the concentration giving a half-maximal response (EC50) was 6.7 µM. Moreover, for the setting “% ACh maximum at 30 μM”, the Emax is recorded as 57%.

As for `CC1CCCC1N1CCC2(C1)C(=O)N(Cc1ccc(-c3cnn(C)c3)cc1F)c1ccccc12` (stereo not shown) [Compound B54], the concentration giving a half-maximal response (EC50) was 7 µM. In addition, the Emax (% ACh maximum at 30 μM) is on record as 51%.

Regarding `Cn1cc(-c2ccc(CN3C(=O)C4(CCN(C5COC5)CC4)c4ccccc43)c(F)c2)cn1` [Compound B55], the EC50 is 7 µM. For the same compound, the maximal effect (Emax) (% ACh maximum at 30 μM) worked out at 45%.

Turning to `Cn1cc(-c2ccc(CN3C(=O)C4(CCCO4)c4ccccc43)cc2)cn1` (stereo not shown) [Compound B56, 1′-(4-(1-methyl-1H-pyrazol-4-yl)benzyl)-4,5-dihydro-3H-spiro[furan-2,3′-indolin]-2′-one], the EC50 was 7.8 µM. Further, the maximal response (Emax) (% ACh maximum at 30 μM) came to 45%.

As for `Cn1cc(-c2ccc(CN3C(=O)C4(CCN(Cc5ccccc5)C4)c4ccccc43)c(F)c2)cn1` (stereo not shown) [Compound B57], the EC50 was > 10 µM. For the same compound, the Emax (% ACh maximum at 30 μM) was determined as 36%.

`Cn1cc(-c2ccc(CN3C(=O)C4(CCN(C5CCC(F)(F)CC5)C4)c4ccccc43)c(F)c2)cn1` (stereo not shown) [Compound B59]: the concentration giving a half-maximal response (EC50) is > 10 µM. Further, the Emax (% ACh maximum at 30 μM) is on record as 53%.

On to `CC1CCCCC1N1CCC2(C1)C(=O)N(Cc1ccc(-c3cnn(C)c3)cc1F)c1ccccc12` (stereo not shown) [Compound B60], for which the EC50 was > 10 µM. For the same compound, for the setting “% ACh maximum at 30 μM”, the maximal effect (Emax) turned out to be 39%.

Regarding `Cn1cc(-c2ccc(CN3C(=O)C4(CCN(CC5CCCCC5)C4)c4ccccc43)c(F)c2)cn1` (stereo not shown) [Compound B61], the EC50 is > 10 µM. The Emax (% ACh maximum at 30 μM) is recorded as 36%.

`Cn1cc(-c2ccc(CN3C(=O)C4(CCN(C(=O)C5CCCCC5)C4)c4ccccc43)c(F)c2)cn1` (stereo not shown) [Compound B62]: the EC50 was > 10 µM. Under “% ACh maximum at 30 μM”, the maximal response (Emax) came to 54%.
